Results as given in US11053516B2, “Glucose composition, microbial fermentation raw material, and method of producing chemical product” (Toray Industries, Inc., priority 2016, dated 2021).

Description: Further, the glucose composition was adjusted to a final pH of 7 using 6 N sodium hydroxide.

Solubility in water: not dissolved
SMILES: O=C(O)/C=C/c1ccc(O)cc1 [Coumaric acid, trans-p-coumaric acid]
